Laboratory results reported in the NIST ThermoML archive (doi:10.1016/j.fluid.2008.03.004).

Assay: xn = mol fraction of the nth substance listed
Settings: 101 kPa, Liquid; for speed of sound: Sing-around technique in a fixed-path interferometer

Cc1cccc(C)c1 [1,3-dimethylbenzene] + COC(C)(C)C
Settings | mass density [kg/m3] | speed of sound [m/s]
288.15 K, x2 = 0 | 868.459 | 1362.7
288.15 K, x2 = 0.047 | 863.235 | 1350.6
288.15 K, x2 = 0.115 | 855.522 | 1332.6
288.15 K, x2 = 0.212 | 844.315 | 1306.8
288.15 K, x2 = 0.304 | 833.627 | 1282.4
288.15 K, x2 = 0.399 | 822.223 | 1256.5
288.15 K, x2 = 0.5 | 809.928 | 1228.3
288.15 K, x2 = 0.601 | 797.423 | 1200.9
288.15 K, x2 = 0.651 | 791.063 | 1185.3
288.15 K, x2 = 0.794 | 772.47 | 1143.4
288.15 K, x2 = 0.898 | 758.81 | 1113.2
288.15 K, x2 = 0.954 | 751.317 | 1097.5
290.65 K, x2 = 0 | 866.318 | 1352.1
290.65 K, x2 = 0.047 | 861.081 | 1340.1
290.65 K, x2 = 0.115 | 853.297 | 1322.5
290.65 K, x2 = 0.212 | 842.102 | 1296.1
290.65 K, x2 = 0.304 | 831.375 | 1271.5
290.65 K, x2 = 0.399 | 819.939 | 1245.6
290.65 K, x2 = 0.5 | 807.6 | 1217.4
290.65 K, x2 = 0.601 | 795.051 | 1189.7
290.65 K, x2 = 0.651 | 788.663 | 1173.8
290.65 K, x2 = 0.794 | 769.999 | 1132
290.65 K, x2 = 0.898 | 756.279 | 1101.5
290.65 K, x2 = 0.954 | 748.754 | 1085.7
293.15 K, x2 = 0 | 864.177 | 1341.7
293.15 K, x2 = 0.047 | 858.922 | 1329.7
293.15 K, x2 = 0.115 | 851.118 | 1312
293.15 K, x2 = 0.212 | 839.887 | 1285.5
293.15 K, x2 = 0.304 | 829.126 | 1260.8
293.15 K, x2 = 0.399 | 817.65 | 1234.7
293.15 K, x2 = 0.5 | 805.27 | 1206.5
293.15 K, x2 = 0.601 | 792.671 | 1178.5
293.15 K, x2 = 0.651 | 786.26 | 1162.6
293.15 K, x2 = 0.794 | 767.519 | 1120.7
293.15 K, x2 = 0.898 | 753.738 | 1090
293.15 K, x2 = 0.954 | 746.179 | 1074.1
295.65 K, x2 = 0 | 862.035 | 1331.3
295.65 K, x2 = 0.047 | 856.763 | 1319
295.65 K, x2 = 0.115 | 848.935 | 1301.5
295.65 K, x2 = 0.212 | 837.67 | 1274.9
295.65 K, x2 = 0.304 | 826.872 | 1250.1
295.65 K, x2 = 0.399 | 815.358 | 1223.9
295.65 K, x2 = 0.5 | 802.93 | 1195.6
295.65 K, x2 = 0.601 | 790.285 | 1167.3
295.65 K, x2 = 0.651 | 783.85 | 1151.5
295.65 K, x2 = 0.794 | 765.033 | 1109.4
295.65 K, x2 = 0.898 | 751.19 | 1078.5
295.65 K, x2 = 0.954 | 743.594 | 1062.5
298.15 K, x2 = 0 | 859.89 | 1320.9
298.15 K, x2 = 0.047 | 854.604 | 1308.8
298.15 K, x2 = 0.115 | 846.749 | 1291
298.15 K, x2 = 0.212 | 835.447 | 1264.3
298.15 K, x2 = 0.304 | 824.615 | 1239.4
298.15 K, x2 = 0.399 | 813.059 | 1213.1
298.15 K, x2 = 0.5 | 800.588 | 1184.7
298.15 K, x2 = 0.601 | 787.899 | 1156
298.15 K, x2 = 0.651 | 781.433 | 1140.4
298.15 K, x2 = 0.794 | 762.537 | 1098.1
298.15 K, x2 = 0.898 | 748.629 | 1066.9
298.15 K, x2 = 0.954 | 740.997 | 1050.9
300.65 K, x2 = 0 | 857.742 | 1310.6
300.65 K, x2 = 0.047 | 852.439 | 1298.5
300.65 K, x2 = 0.115 | 844.562 | 1280.5
300.65 K, x2 = 0.212 | 833.221 | 1253.8
300.65 K, x2 = 0.304 | 822.354 | 1228.8
300.65 K, x2 = 0.399 | 810.758 | 1202.3
300.65 K, x2 = 0.5 | 798.24 | 1173.9
300.65 K, x2 = 0.601 | 785.504 | 1144.9
300.65 K, x2 = 0.651 | 779.011 | 1129.3
300.65 K, x2 = 0.794 | 760.033 | 1086.9
300.65 K, x2 = 0.898 | 746.061 | 1055.5
300.65 K, x2 = 0.954 | 738.393 | 1039.4
303.15 K, x2 = 0 | 855.593 | 1300.3
303.15 K, x2 = 0.047 | 850.273 | 1288.1
303.15 K, x2 = 0.115 | 842.425 | 1270
303.15 K, x2 = 0.212 | 830.994 | 1243.3
303.15 K, x2 = 0.304 | 820.086 | 1218.2
303.15 K, x2 = 0.399 | 808.453 | 1191.6
303.15 K, x2 = 0.5 | 795.888 | 1163.1
303.15 K, x2 = 0.601 | 783.103 | 1133.8
303.15 K, x2 = 0.651 | 776.58 | 1118.3
303.15 K, x2 = 0.794 | 757.521 | 1075.7
303.15 K, x2 = 0.898 | 743.481 | 1044
303.15 K, x2 = 0.954 | 735.774 | 1027.8
305.65 K, x2 = 0 | – | 1290
305.65 K, x2 = 0.047 | – | 1277.8
305.65 K, x2 = 0.115 | – | 1259.7
305.65 K, x2 = 0.212 | – | 1232.9
305.65 K, x2 = 0.304 | – | 1207.7
305.65 K, x2 = 0.399 | – | 1180.9
305.65 K, x2 = 0.5 | – | 1152.3
305.65 K, x2 = 0.601 | – | 1122.8
305.65 K, x2 = 0.651 | – | 1107.3
305.65 K, x2 = 0.794 | – | 1064.7
305.65 K, x2 = 0.898 | – | 1032.7
305.65 K, x2 = 0.954 | – | 1016.3
